What was measured:
SK-BR-3 cancer cells = test: Inhibitory activity against proliferation of SK-BR-3 cancer cells (CellTiter-Glo); type: cell-based; settings: Homo sapiens, SK-BR-3, 120 h, ErbB2-overexpressing SK-BR-3 cells, 120 hours after treatment
How it was run: (§1)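 Cells seeded 48 h before dosing (SK-BR-3 in McCOY'S 5A + 10% FBS; BT-474 in RPMI-1640 + 20% FBS), then exposed 120 h to 12 concentrations, 0.2 nM-5 μM final. Viability by CellTiter-Glo luminescence; GI50 from growth rate vs control, triplicate runs.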

BT-474 cancer cells = test: Inhibitory activity against proliferation of BT-474 cancer cells (CellTiter-Glo); type: cell-based; settings: Homo sapiens, BT-474 ErbB2-overexpressing cancer cells, 120 hours after treatment
How it was run: as §1

GI50 (SK-BR-3 cancer cells) [nM]	GI50 (BT-474 cancer cells) [nM]	SMILES
50 to 500	< 50	C=CC(=O)Nc1cc(Nc2cc(N3OCC[C@@H]3c3cccc(-c4ccc(O)nc4)c3)ncn2)c(OC)cc1N(C)CCN(C)C [Example 301, (R)-N-(2-((2-(dimethylamino)-ethyl)(methyl)-amino)-5-((6-(3-(3-(6-hydroxy-pyridin-3-yl)phen-yl)-isoxazolidin-2-yl)pyrimidin-4-yl)amino)-4-meth-oxyphenyl)acryl-amide]
50 to 500	< 50	C=CC(=O)Nc1cc(Nc2cc(N3OCC[C@@H]3c3cccc(-c4cnc(C)c(F)c4)c3)ncn2)c(OC)cc1N1CCN(C)CC1 [Example 302, (R)-N-(5-((6-(3-(3-(5-fluoro-6-meth-ylpyridin-3-yl)-phenyl)isoxazol-idin-2-yl)pyrim-idin-4-yl)amino)-4-methoxy-2-(4-methylpiperazin-1-yl)phenyl)acryl-amide]
< 50	< 50	C=CC(=O)Nc1cc(Nc2cc(N3OCC[C@@H]3c3cccc(-c4cnc(C)c(F)c4)c3)ncn2)c(OC)cc1N(C)CCN(C)C [Example 303, (R)-N-(2-((2-(dimethylamino)-ethyl)(methyl)-amino)-5-((6-(3-(3-(5-fluoro-6-methylpyridin-3-yl)phenyl)isoxazol-idin-2-yl)pyrim-idin-4-yl)amino)-4-methoxyphenyl)-acrylamide]
< 50	< 50	C=CC(=O)Nc1cc(Nc2cc(N3OCC[C@@H]3c3cccc(-c4cccc(F)c4)c3)ncn2)c(OC)cc1N1CCN(CCN(C)C)CC1 [Example 304, (R)-N-(2-(4-(2-(dimethylamino)-ethyl)piperazin-1-yl)-5-((6-(3-(3′-fluoro-[1,1′-biphen-yl]-3-yl)isoxazol-idin-2-yl)pyrim-idin-4-yl)amino)-4-methoxyphenyl)-acrylamide]
< 50	< 50	C=CC(=O)Nc1cc(Nc2cc(N3OCC[C@@H]3c3cccc(C#CC(C)(C)C)c3)ncn2)c(OC)cc1N(C)CCN(C)C [Example 305, (R)-N-(2-((2-(dimethylamino)-ethyl)(methyl)-amino)-5-((6-(3-(3-(3,3-dimethyl-but-1-yn-1-yl)-phenyl)isoxazol-idin-2-yl)pyrim-idin-4-yl)amino)-4-methoxyphenyl)-acrylamide]
< 50	< 50	C=CC(=O)Nc1cc(Nc2cc(N3OCC[C@@H]3c3cccc(-c4cccc(F)c4)c3)ncn2)c(OC)cc1N1C[C@H]2C[C@@H]1CN2C [Example 306, N-(5-((6-((R)-3-(3′-fluoro-[1,1′-biphenyl]-3-yl)-isoxazolidin-2-yl)-pyrimidin-4-yl)-amino)-4-meth-oxy-2-((1R,4R)-5-methyl-2,5-diaza-bicyclo[2.2.1]-heptan-2-yl)phen-yl)acrylamide]
< 50	< 50	C=CC(=O)Nc1cc(Nc2cc(N3OCC[C@@H]3c3cccc(-c4cccc(F)c4)c3)ncn2)c(OC)cc1N1CCN(C)[C@@H](C)C1 [Example 307, N-(2-((S)-3,4-dimethylpiperazin-1-yl)-5-((6-((R)-3-(3′-fluoro-[1,1′-biphenyl]-3-yl)-isoxazolidin-2-yl)-pyrimidin-4-yl)-amino)-4-methoxy-phenyl)acrylamide]
< 50	< 50	C=CC(=O)Nc1cc(Nc2cc(N3OCC[C@@H]3c3ccc(F)c(-c4cccc(F)c4)c3)ncn2)c(OC)cc1N1CCN(C)CC1 [Example 308, (R)-N-(5-((6-(3-(3′,6-difluoro-[1,1′-biphenyl]-3-yl)-isoxazolidin-2-yl)-pyrimidin-4-yl)-amino)-4-methoxy-2-(4-methylpiper-azin-1-yl)phenyl)-acrylamide]
< 50	< 50	C=CC(=O)Nc1cc(Nc2cc(N3OCC[C@@H]3c3cccc(C#CC(C)(C)O)c3)ncn2)c(OC)cc1N(C)CCN(C)C [Example 309, (R)-N-(2-((2-(dimethylamino)-ethyl)(methyl)-amino)-5-((6-(3-(3-(3-hydroxy-3-methylbut-1-yn-1-yl)phenyl)isoxazol-idin-2-yl)pyrim-idin-4-yl)amino)-4-methoxyphen-yl)acrylamide]

Source: patent US20240262815A1, “HETEROARYL DERIVATIVE, METHOD FOR PREPARING SAME, AND PHARMACEUTICAL COMPOSITION COMPRISING SAME AS ACTIVE INGREDIENT” (VORONOI INC., priority 2021, published 2024)
